Test results published in US6710075B2, “Therapeutic compounds and methods” (The Government of the State of Sarawak, Malaysia, priority 2000, dated 2004).

Tests used:
[1] = system: Tumour Necrosis Factor-α (TNF-α); test: Inhibition of TNF-α production by LPS-activated THP-1 cells (sandwich ELISA); format: cell-based, human; conditions: 18 hours
Text: (§1) (a) Compounds A and B were identified from a bark sample of Aglaia leptantha through their ability to inhibit production of Tumour Necrosis Factor-α (TNF-α) by THP-1 human promonocytic leukemia cells (Tsuchiya, et al, Int. J. Cancer, 1980, 26(2):171-6) activated with lipopolysaccharide (LPS). Table 4 summarises the results comparing the activity of Compounds A and B for inhibition of TNF-α production to their effects on general cell metabolism measured using WST-1 reduction, DNA synthesis and protein synthesis assays for THP-1 cells. […] For comparison, the effects of Compounds A and B on A549 lung epithelial carcinoma cells (Leiber et al, Int. J. Cancer, 1976, 17(1)-62-70) were also measured and the data is also included in Table 4.

THP-1 cells [2] = test: WST-1 reduction by THP-1 cells; format: cell-based, human
Text: as §1

THP-1 cells [3] = test: Protein synthesis, [14C]-leucine uptake, THP-1 cells; format: cell-based, human; conditions: 48 hours
Text: as §1

THP-1 cells [4] = test: DNA synthesis, [14C]-thymidine uptake, THP-1 cells; format: cell-based, human; conditions: 48 hours
Text: as §1

[5] = system: Intercellular Adhesion Molecule-1 (ICAM-1); test: IL-1-induced ICAM-1 surface expression by A549 cells (Delfia); format: cell-based, human; conditions: 24 hours, read-out: IC50 ICAM-1 Production
Text: as §1

A549 cells [6] = test: Protein synthesis, [14C]-leucine uptake, A549 cells; format: cell-based, human; conditions: 72 hours
Text: as §1

A549 cells [7] = test: DNA synthesis, [14C]-thymidine uptake, A549 cells; format: cell-based, human; conditions: 72 hours
Text: as §1

A549 [8] = test: Cytotoxic activity, sub-diploid DNA content by flow cytometry (propidium iodide); format: cell-based, human; conditions: A549, 6 days; read-out: LC50 (6 day cultures)
Method: (§2) (b) Compound A was assessed for cytotoxic and cytostatic activity against a panel of cell lines derived from a variety of human tumour types in addition to THP-1 and A549 cells (Table 5). These included K562 leukemic cells (Lozzio and Lozzio, 1975, Blood 45:321-34), PC3 prostate tumour cells (Kaighn et al., 1979, Invest. Urol. 17:16-23) and SF268 glioblastoma cells (Westphal et al, 1985, Biochem. Biophys. Res. Commun., 132:284-9). […] However, the cytotoxic potency of Compound A increased dramatically after 6 days of culture for the K562, A549 and SF268 cells.

K562 = test: as above; format: cell-based, human; conditions: K562, 6 days; read-out: LC50 (6 day cultures)
Method: as §2

PC3 = test: as above; format: cell-based, human; conditions: PC3, 6 days; read-out: LC50 (6 day cultures)
Method: as §2

SF268 = test: as above; format: cell-based, human; conditions: SF268, 6 days; read-out: LC50 (6 day cultures)
Method: as §2

THP-1 = test: as above; format: cell-based, human; conditions: THP-1, 6 days; read-out: LC50 (6 day cultures)
Method: as §2

K562 leukemic cells = test: DNA content analysis (cell cycle) of K562 leukemic cells; format: cell-based, human; conditions: K562, 10-15 nM, 3 days
Method: K562 cells were cultured for 3 days with the indicated concentration of Compounds A or B then collected and fixed in 70% ethanol prior to staining with propidium iodide and DNA content determined by flow cytometry. The numbers indicate the % of cells in G0/G1, S and G2/M phases of the cell cycle respectively relative to all cells with ≧2N DNA content.

A549 [9] = test: Cytostatic activity, relative cell number by YOYO-1 DNA dye; format: cell-based, human; conditions: Homo sapiens, 72 h; A549, lung; read-out: GI50 (3 day cultures)
Method: as §2

A549 cells [10] = test: Cell death as loss of membrane integrity, YOYO-1 uptake; format: cell-based; conditions: Homo sapiens, A549, 72 h, read-out: LC50
Text: (§3) (a) Table 8 compares the cytostatic and cytotoxic effects of Compound A to three previously identified 1H-cyclopenta[b]benzofuran lignans that lack the dioxanyloxy group at the C6-position. The reference compounds are: Rocaglaol (Reference Compound 1) (Ohse et al., J Nat Prod, 1996, 59(7):650-52); 4′-Demethoxy-3′,4′-methylenedioxyrocaglaol (Reference Compound 2) and Methyl 4′-demethoxy-3′,4′-methylenedioxyrocaglate (Reference Compound 3) (Lee et al., Chem Biol Interact, 1998, 115(3):215-28).

THP-1 cells [11] = test: as above; format: cell-based; conditions: Homo sapiens, THP-1, 72 h, read-out: LC50
Text: as §3

A549 cells [12] = test: Effect on cell cycle arrest and cell death induced by anti-cancer agents, DNA content analysis; format: cell-based; conditions: 3 days
Method: A549 cells in 6 well plates were cultured for 3 days in the presence or absence of 10 nM Compound A together with 0.1 μM camptothecin, 10 μM vinblastin, 1 μM paclitaxel or 1 μM staurosporine as indicated. The cells were then collected and fixed in 70% ethanol prior to staining with propidium iodide and DNA content determined by flow cytometry. The numbers indicate the % of cells in the various cell cycle phases relative to all cells with ≧2N DNA content and also the % dead cells (ie. subdiploid ≦2N cells) to the left of the dotted marker that arose during the culture period.
This was examined in more detail using DNA content analysis to specifically measure cell cycle progression and cell death. In this experiment in addition to camptothecin and paclitaxel cells were also treated with vinblastin (another microtubule inhibitor) (Sorger et al., 1997, supra) and staurosporine (a kinase inhibitor) (Gescher, Crit Rev Oncol Hematol., 2000, 34(2):127-35).

A549 cells [13] = test: Senescence-associated β-galactosidase (SA-β-gal) activity staining; format: cell-based, human; conditions: A549, 250 nM doxorubicin, 10 days
Method: A549 cells were seeded at 10,000 cell/well in 6 well plates in the presence or absence of varying concentrations of Compound A (10-50 nM) or 250 nM doxorubicin for 10 days prior to their processing and staining overnight for senescence-associated β-galactosidase activity as described previously (Dimri et al., 1995, Proc Natl Acad Sci USA 1995 92(20):9363-7). […] PC, phase contrast microscopy. BF, bright field microscopy Magnification×200.
This was evaluated further by measuring senescence-associated β-galactosidase (SA-β-gal) activity, a biomarker previously described to correlate well with senescence of human cells (Dimri et al., Proc Natl Acad Sci USA 1995 92(20):9363-7). […] Therefore, in addition to Compound A A549 cells were also treated with doxorubicin as an experimental control.

THP-1 cells [14] = test: DNA content analysis (cell cycle and viability) of THP-1 cells; format: cell-based, human; conditions: THP-1, 1000 nM paclitaxel, 2 days
Method: THP-1 cells were cultured for 2 days with the indicated concentration of Compound A or 1000 nM paclitaxel then collected and fixed in 70% ethanol prior to staining with propidium iodide and DNA content determined by flow cytometry. The numbers indicate the % of cells in the various cell cycle phases relative to all cells with ≧2N DNA content and also the % dead cells (ie. subdiploid≦2N cells) to the left of the marker (the vertical line) that arose during the culture period.

[15] = THP-1 leukemic cells, cultured with compound for 3 days, read-out: IC50 (reduction of WST-1)

For COC(=O)[C@H]1[C@@H](O)[C@@]2(O)c3c(OC)cc(OC4OC(C(O)CO)COC4OC)cc3O[C@@]2(c2ccc(OC)cc2)[C@@H]1c1ccccc1 (single isomer, unassigned) [Compound B], the IC50 [1] was 15 nM, the IC50 (THP-1 cells [2]; THP-1 cells, 18 hours of culture, read-out: IC50 WST-1 Reduction) was 40 nM and the IC50 (THP-1 cells [2]; [15]) was 1.5 nM. It also gave an IC50 (THP-1 cells [3]) of 3 nM, an IC50 (THP-1 cells [4]) of 3 nM and an IC50 [5] of 5000 nM. It also gave an IC50 (A549 cells [6]) of 10 nM, an IC50 (A549 cells [7]) of 4 nM and a CC50 (A549 [8]) of 12 nM. It also gave a CC50 (K562) of 15 nM, a CC50 (PC3) of 12 nM and a CC50 (SF268) of 22 nM. For the same compound, the CC50 (THP-1) was 15 nM and the “cell cycle phase accumulation” value (K562 leukemic cells) was “characteristic accumulation of cells in G2/M phases of the cell cycle”.

For COC(=O)[C@H]1[C@@H](O)[C@@]2(O)c3c(OC)cc(OC4OC(C(COC(C)=O)OC(C)=O)COC4OC)cc3O[C@@]2(c2ccc(OC)cc2)[C@@H]1c1ccccc1 (stereo partly drawn) [Compound A′], the IC50 (THP-1 cells [2]; [15]) was 0.3 nM.

With COC(=O)[C@H]1[C@@H](O)[C@@]2(O)c3c(OC)cc(OC4OC(C(COC(C)=O)OC(C)=O)COC4OC)cc3O[C@@]2(c2ccc(OC)cc2)[C@@H]1c1ccccc1 (stereo partly drawn) [Compound B′] the IC50 (THP-1 cells [2]; [15]) was 0.7 nM.

COc1ccc(C23Oc4cc(OC)cc(OC)c4C2(O)C(O)CC3c2ccccc2)cc1 (stereo not drawn) [Reference Compound 1, Rocaglaol] was tested, and the GI50 (A549 [9]) was 3980 nM, the CC50 (A549 cells [10]) was > 5000 nM and the CC50 (THP-1 cells [11]) was > 5000 nM.

For COc1cc(OC)c2c(c1)OC1(c3ccc4c(c3)OCO4)C(c3ccccc3)CC(O)C21O (stereo not drawn) [Reference Compound 2, 4′-Demethoxy-3′,4′-methylenedioxyrocaglaol], the GI50 (A549 [9]) was 389 nM, the CC50 (A549 cells [10]) was > 5000 nM and the CC50 (THP-1 cells [11]) was > 5000 nM.

With COC(=O)C1C(O)C2(O)c3c(OC)cc(OC)cc3OC2(c2ccc3c(c2)OCO3)C1c1ccccc1 (stereo not drawn) [Reference Compound 3, Methyl 4′-demethoxy-3′,4′-methylenedioxyrocaglate] the GI50 (A549 [9]) was 56 nM, the CC50 (A549 cells [10]) was > 5000 nM and the CC50 (THP-1 cells [11]) was > 5000 nM.

CC[C@@]1(O)C(=O)OCc2c1cc1n(c2=O)Cc2cc3ccccc3nc2-1 [camptothecin, reference compound] was tested, and the “cell cycle phase accumulation” value (A549 cells [12]; A549, 0.1 μM camptothecin) was “accumulation of cells in S phase of the cell cycle”.

With COc1cccc2c1C(=O)c1c(O)c3c(c(O)c1C2=O)C[C@@](O)(C(=O)CO)C[C@@H]3O[C@H]1C[C@H](N)[C@H](O)[C@H](C)O1 [doxorubicin, reference compound] the SA-β-gal activity (A549 cells [13]) was “exhibited SA-β-gal activity”.

For CC(=O)O[C@H]1C(=O)[C@@]2(C)[C@H]([C@H](OC(=O)c3ccccc3)[C@]3(O)C[C@H](OC(=O)[C@H](O)[C@@H](NC(=O)c4ccccc4)c4ccccc4)C(C)=C1C3(C)C)[C@]1(OC(C)=O)CO[C@@H]1C[C@@H]2O [paclitaxel, reference compound], the “cell cycle phase accumulation” value (THP-1 cells [14]) was “caused cells to accumulate in the G2/M phases of the cell cycle” and the “cell cycle phase accumulation” value (A549 cells [12]; A549, 1 μM paclitaxel) was “majority of cells arresting in the G2/M phases of the cell cycle”.

In the case of CC[C@]1(O)C[C@@H]2CN(CCc3c([nH]c4ccccc34)[C@@](C(=O)OC)(c3cc4c(cc3OC)N(C)[C@H]3[C@@](O)(C(=O)OC)[C@H](OC(C)=O)[C@]5(CC)C=CCN6CC[C@]43[C@@H]65)C2)C1 [vinblastin, reference compound], the “cell cycle phase accumulation” value (A549 cells [12]; A549, 10 μM vinblastin) is reported as “majority of cells arresting in the G2/M phases of the cell cycle”.
